From patent US20140314904A1, “PRE-SLAUGHTER DIET INCLUDING METHIONINE” (ADISSEO FRANCE S.A.S., priority 2011, published 2014)

How the values were obtained:
Format in all cases: in vivo, pig
slaughter pigs = assay: Free protein thiol (protein oxidation, Ellman's reagent); conditions: for Level of free thiol (protein oxidation): 7 days at 2° C., LS mean ± SEM; for Decline of level of free thiol from storage without oxygen to high-oxygen MAP: vacuum versus MAP
Experimental: In Example 1 twenty-one pigs were randomly assigned to one of three feeding groups (n=7). The control group received a standardized diet only. The DLM and HMTBA groups received the standardized diet plus a high-methionine supplement (either DLM (i.e. […] At 48 h post mortem, 3 cm thick pork chops were either vacuum packed or sealed in a modified atmosphere (MA; 80% O2) and stored for an additional 7 days at 2° C. Instrumental hardness was measured using the Warner-Bratzler shear force (WBSF; Newton) method. Protein oxidation was measured as the loss of free thiol groups in proteins (nmol thiol per mg protein) using Ellman's reagent. Lipid oxidation was measured as the increase in 2-thiobarbituric acid reactive substances (TBARS; mg malondialdehyde per kg meat). Twenty-one slaughter pigs ([Yorkshire×Swedish Landrace]×Hampshire) were raised on a commercial diet. Pigs were randomly assigned to one of three groups (n=7). […] Pork chops were cut perpendicular to the long axis of each LD muscle. Six 3 cm thick pork chops was sliced from each LD. Three were vacuum packed and three were packed in a high-oxygen modified atmosphere. The chops were placed in plastic trays ([…]-43A white/PS; 195×144×43 mm in dimension; Frch Plast, Denmark) and placed in vacuum bags (EM-628862; […] The ambient air was removed from all vacuum bags using a vacuum machine (type, manufacturer, country). […] (until 9 days post mortem). The gas composition was checked (CheckMate 9900, PBI Dansensor, Denmark) before packaging and again prior to opening, at the end of the simulated display period in order to check for leakage. The oxygen-enriched environment was well maintained (83.4%) throughout the display period for all MA packages. […] In brief, the frozen pork samples were partially thawed at chill storage temperature for 30 minutes. Fat and connective tissue was removed and 1.0 g of lean meat was homogenised in 25 ml of 5.0% SDS (sodium dodecyl sulphate) in 0.10 M Tris ([…]) buffer, pH 8.0 using an Ultra Turrax (Ultra Turrax T-25, Janke & Kunkel IKA-Labortechnik, Germany). The homogenates were placed in a water bath at 80° C. for 30 minutes, and subsequently cooled and filtered. The protein concentration was determined spectrophotometrically (Helios Omega Single Beam UV-VIS, Fisher Scientific Biotech Line, Denmark) at a wavelength of 280 nm using a standard curve prepared from bovine serum albumin (BSA). […] Filtrate (25 μl), Tris buffer (100 μl) and DTNB (25 μl) were added to wells in a 96 well microtiter plate. The absorbance at 410 nm was measured before addition of DTNB (ABS410meat) and after reaction with DTNB (ABS410meat+DTNB). In addition, the absorbance of a blank solution (25 μl 5% SDS dissolved in 100 mM Tris buffer and 100 μl 0.10 M Tris buffer) was likewise measured at 410 nm. After addition of DTNB, the microtiter plate was stored in the dark and the absorbance was measured exactly 30 minutes later. The absorbance corresponding to the thiol concentration in the sample was CorrABS410=ABS410meat+DTNB-ABS410meat-ABS410blank. […] The concentration of free thiol groups was determined as nmol thiol per mg protein. Duplicate homogenates, and triplicate measurements on each homogenate, were made for each meat sample and the mean values were used for further statistical analysis.

[1] = system: L. dorsi muscle of the pigs; assay: sEMG peak-to-peak amplitude of L. dorsi muscle; conditions: 1 weeks dietary supplementation
From the text: This study used both a single and a double differential electrode configuration, with electrodes ([…] & […]; Blue Sensor, Medicotest […], Denmark) configured as described previously by Harrison et al. (Harrison, […]. Molsted, & E. M. Bartels. The uremic environment and muscle dysfunction in man and rat. Nephron. Vol 103: 33-42, 2006). Surface electromyography recordings were taken via an ML 132 amplifier connected to a ML780 PowerLab/[…] converter (AD Instruments, Chalgrove, Oxfordshire, UK) with a further connection to a MacBook Air with Chart v. 3.6.3/s Software, Peak Parameters and Spike Histogram extensions. […] Sampling speed was set to 40,000 per second. Differential recordings of sEMG signals were made via surface electrodes from the L. dorsi muscle as previously described by Andersen et al. (2008, Andersen […], Guy J H, Edwards S A & Harrison A P, Postnatal changes in electromyographic signals during piglet growth, and in relation to muscle fibre types. […] In brief, a bipolar differential electrode configuration, with disposable Ag-AgCl recording electromyography electrodes was attached to the exposed skin surface above the L. dorsi muscle, with a set inter-electrode distance of 16-19 mm (Andersen et al., 2008). […] The recorded sEMG signal was assessed in terms of peak-to-peak amplitude (mV) using Chart analysis software (AD Instruments, Chalgrove, Oxfordshire, UK).

pigs [2] = assay: Post mortem pH and temperature in M. longissimus dorsi, Example 2
Experimental: (§1) The pigs were slaughtered at a commercial slaughter house in Sweden after a resting time of 5 h. At 45 minutes post mortem, pH (Knick portamess 751) and temperature (digital thermometer, Weber) were measured in the M. longissiumus dorsi at the level of the 10th rib. At 48 h post mortem, the entire loins were dissected from the carcasses and transported to the University of Copenhagen for further measurements. Ultimate pH was measured, as well as colour by Minolta L*a*b*. Dry matter content was determined by drying muscle samples at 105° C. for 24 h. Slices of 3 cm thickness were cut, measured and vacuum packed before being stored for a further 7 days at 2° C. At the end of the storage period samples were heated to an internal temperature of 75° C. After being cooled down, samples were stored cold at 2° C. until they were cut into slabs of 1 cm×1 cm×2.5 cm size for shear force measurement. For each animal, 8 specimens were measured and the mean maximum load was used for further analysis.

pigs [3] = assay: Colour by Minolta L*a*b*, Example 2; conditions: Laboratory, 2 days post mortem
Experimental: as §1

[4] = Slaughter house, 45 min post mortem

SMILES | Level of free thiol (protein oxidation) (slaughter pigs; MAP (80% O2 + 20% CO2)) | Level of free thiol (protein oxidation) (slaughter pigs; Vacuum) | Decline of level of free thiol from storage without oxygen to high-oxygen MAP (slaughter pigs) | Change in sEMG peak-to-peak amplitude between pre and post groups ([1]; 60, 150, 200 Hz) | pH (pigs [2]; Laboratory, 2 days post mortem) | Temperature (pigs [2]; [4]) | pH (pigs [2]; [4]) | Colour Minolta L* (pigs [3]) | Colour Minolta a* (pigs [3]) | Colour Minolta b* (pigs [3]) | Improvement in muscle growth/performance (sEMG peak-to-peak amplitude) cf CONT (untreated) levels [1]
CSCCC(N)C(=O)O (racemic) [DLM, DL-methionine] | 56.27 ± 1.13 ^B nmol thiol/mg protein | 62.16 ± 1.19 ^A nmol thiol/mg protein | 6.0 units | clear improvement | 5.50 | 39 °C | 6.10 | 55.75 units | 6.69 units | 2.92 units | –
CSCCC(O)C(=O)O (racemic) [HMTBA, 2-hydroxy-4-(methylthio) butanoic acid] | 59.15 ± 1.13 ^A, B nmol thiol/mg protein | 62.60 ± 1.13 ^A nmol thiol/mg protein | 3.5 units | – | 5.40 | 39 °C | 6.20 | 56.89 units | 7.58 units | 3.71 units | ~100%
